Assay [1] relates to Streptococcus sp. 'group A'. Kind of assay: Streptococcus pyogenes SK(-)GAS viability under kanamycin – luminescence, BacTiterGlo, confirmation, counter-screen for streptokinase expression inhibitor project, dose response (AID 1900). Type of assay: functional, organism-based.
Assay [2] deals with T1, Streptokinase A (Streptococcus pyogenes serotype M1, UniProt P10520).
T1 sequence (P10520 whole entry): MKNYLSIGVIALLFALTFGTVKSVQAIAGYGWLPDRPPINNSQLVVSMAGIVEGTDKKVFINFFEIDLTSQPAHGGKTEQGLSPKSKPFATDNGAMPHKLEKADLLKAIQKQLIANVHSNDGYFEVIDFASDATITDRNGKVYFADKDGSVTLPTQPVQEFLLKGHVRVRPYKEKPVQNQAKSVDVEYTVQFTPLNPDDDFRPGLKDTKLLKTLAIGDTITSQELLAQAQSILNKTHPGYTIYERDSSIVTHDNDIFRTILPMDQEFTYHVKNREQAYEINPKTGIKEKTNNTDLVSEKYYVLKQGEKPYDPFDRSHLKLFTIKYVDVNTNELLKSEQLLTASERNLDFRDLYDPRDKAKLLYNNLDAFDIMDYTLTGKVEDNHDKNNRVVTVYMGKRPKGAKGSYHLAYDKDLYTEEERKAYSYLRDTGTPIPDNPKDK
The experiment in a line: viability-normalized secreted streptokinase activity reduction – plasminogen activation absorbance, OD405, dose response (AID 1914).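 Also: secreted streptokinase activity via plasminogen activation per viability signal from cell pellet.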 The class given is functional, Streptococcus pyogenes M1 GAS.

Assay [3] has as its system Streptococcus. Kind of assay: GAS UMAA2166 growth inhibition – luminescence, BacTiterGlo, counter-screen for streptokinase expression inhibitor project, dose response (AID 1915).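 Also: potency for reduction of bacterial viability or growth.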 The class given is functional, organism-based.
In assay [4] the target is Cysteine protease ATG4B (Homo sapiens, UniProt Q9Y4P1). Type of assay: functional.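 Also: Fluorescence-based dose-response confirmation assay measuring inhibition of ATG4B activity.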
Cysteine protease ATG4B, sequence (Q9Y4P1 whole entry): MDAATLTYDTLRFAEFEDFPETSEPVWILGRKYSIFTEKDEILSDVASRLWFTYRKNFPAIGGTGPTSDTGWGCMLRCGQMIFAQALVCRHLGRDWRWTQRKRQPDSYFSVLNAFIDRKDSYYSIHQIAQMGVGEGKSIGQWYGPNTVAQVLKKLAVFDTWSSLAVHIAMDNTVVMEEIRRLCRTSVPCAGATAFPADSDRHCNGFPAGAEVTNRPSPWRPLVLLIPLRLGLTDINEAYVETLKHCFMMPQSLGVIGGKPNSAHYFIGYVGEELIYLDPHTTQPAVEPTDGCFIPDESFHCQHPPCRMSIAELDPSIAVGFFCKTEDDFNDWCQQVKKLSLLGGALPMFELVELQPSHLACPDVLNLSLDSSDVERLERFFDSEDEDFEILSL
Assay [5] addresses Phospholipase A2 (Homo sapiens, UniProt P04054). The class given is functional.
Assay [6] in a line: Luminescence Cell-Based Dose Retest to Confirm Inhibitors of Cancer Stem Cells. [Related pubchem assays (depositor defined):AID2717, AID2721]. Type of assay: functional. To be noted: Homo sapiens.
The target of assay [7] is DNA topoisomerase (Yersinia pestis, UniProt A0A2S9PM60). Kind of assay: Yersinia topoisomerase I cleavage product accumulation – biochemical, cherry-pick, dose response (AID 588525).
DNA topoisomerase, sequence (A0A2S9PM60 whole entry): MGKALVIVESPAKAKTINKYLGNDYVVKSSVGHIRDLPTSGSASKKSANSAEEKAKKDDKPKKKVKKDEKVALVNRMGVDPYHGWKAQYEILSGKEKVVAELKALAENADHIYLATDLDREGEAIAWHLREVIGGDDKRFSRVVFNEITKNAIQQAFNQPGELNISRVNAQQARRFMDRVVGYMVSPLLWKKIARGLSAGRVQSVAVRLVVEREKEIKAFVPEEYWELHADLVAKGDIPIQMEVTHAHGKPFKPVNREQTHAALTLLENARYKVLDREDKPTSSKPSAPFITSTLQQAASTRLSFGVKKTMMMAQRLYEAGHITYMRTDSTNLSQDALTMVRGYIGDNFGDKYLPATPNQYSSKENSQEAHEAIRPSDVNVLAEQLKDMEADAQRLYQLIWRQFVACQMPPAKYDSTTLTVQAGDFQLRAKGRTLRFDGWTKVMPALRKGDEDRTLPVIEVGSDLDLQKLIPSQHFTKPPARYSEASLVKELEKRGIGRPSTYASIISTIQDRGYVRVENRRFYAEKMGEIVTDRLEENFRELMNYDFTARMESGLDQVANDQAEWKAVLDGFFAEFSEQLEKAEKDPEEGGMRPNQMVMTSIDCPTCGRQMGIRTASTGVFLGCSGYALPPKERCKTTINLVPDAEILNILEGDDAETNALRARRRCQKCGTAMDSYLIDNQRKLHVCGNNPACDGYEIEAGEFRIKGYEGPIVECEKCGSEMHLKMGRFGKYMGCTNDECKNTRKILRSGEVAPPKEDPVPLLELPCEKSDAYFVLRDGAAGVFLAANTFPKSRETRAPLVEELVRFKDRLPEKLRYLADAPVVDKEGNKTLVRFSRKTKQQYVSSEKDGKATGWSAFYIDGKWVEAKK
In assay [8] the test system is INS1. Kind of assay: INS-1E survival protection against cytokine death – cell-based, luminescence, retest, dose response (AID 449756).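 Also: cell death triggered by IL-1 beta plus TNF-alpha plus IFN-gamma mixture; protective hits raise ATP signal compared with cytokine alone wells.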 The class given is functional. The settings on record: Rattus norvegicus.
In assay [9] the test system is Candida albicans. The experiment in a line: fluconazole-resistant Candida strain growth inhibitors – CaCi-8 strain, dry powder, set 4, dose response (AID 488950). Type of assay: functional, organism-based.
Assay [10] has as its system Candida albicans. The experiment in a line: C. albicans growth inhibition with fluconazole – CaCi-2 strain, Alamar Blue, dry powder, set 4, dose response (AID 488943). Type of assay: functional, organism-based.
The test system of assay [11] is Candida albicans. The experiment in a line: Candida growth inhibition combined with fluconazole – CaCi-2 strain, Alamar Blue, dry powder, set 3, dose response (AID 488907). Type of assay: functional, organism-based.
In assay [12] the target is Latent membrane protein 1 (Human herpesvirus 4 (strain B95-8), UniProt P03230). The experiment in a line: LMP1 TES1 pathway selectivity over dsRED control – imaging, HEK293T, dual-color eGFP/dsRED, cherry-picks, selectivity assay for LMP1 NF-kB inhibitor project, dose response (AID 588398). Type of assay: functional, cell-based.
Latent membrane protein 1, sequence (P03230 whole entry): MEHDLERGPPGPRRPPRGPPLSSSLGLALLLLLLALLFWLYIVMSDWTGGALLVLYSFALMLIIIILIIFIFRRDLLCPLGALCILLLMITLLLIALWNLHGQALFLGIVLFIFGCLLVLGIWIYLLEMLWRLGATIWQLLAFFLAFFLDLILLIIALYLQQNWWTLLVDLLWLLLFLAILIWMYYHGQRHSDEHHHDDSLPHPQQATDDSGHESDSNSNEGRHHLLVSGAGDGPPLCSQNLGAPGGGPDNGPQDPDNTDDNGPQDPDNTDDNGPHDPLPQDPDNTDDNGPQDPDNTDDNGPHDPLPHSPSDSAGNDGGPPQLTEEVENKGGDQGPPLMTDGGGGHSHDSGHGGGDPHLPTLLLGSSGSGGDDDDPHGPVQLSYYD
For assay [13], the target named is T2, DNA repair protein RAD52 homolog (Homo sapiens, UniProt P43351).
T2 sequence (P43351 whole entry): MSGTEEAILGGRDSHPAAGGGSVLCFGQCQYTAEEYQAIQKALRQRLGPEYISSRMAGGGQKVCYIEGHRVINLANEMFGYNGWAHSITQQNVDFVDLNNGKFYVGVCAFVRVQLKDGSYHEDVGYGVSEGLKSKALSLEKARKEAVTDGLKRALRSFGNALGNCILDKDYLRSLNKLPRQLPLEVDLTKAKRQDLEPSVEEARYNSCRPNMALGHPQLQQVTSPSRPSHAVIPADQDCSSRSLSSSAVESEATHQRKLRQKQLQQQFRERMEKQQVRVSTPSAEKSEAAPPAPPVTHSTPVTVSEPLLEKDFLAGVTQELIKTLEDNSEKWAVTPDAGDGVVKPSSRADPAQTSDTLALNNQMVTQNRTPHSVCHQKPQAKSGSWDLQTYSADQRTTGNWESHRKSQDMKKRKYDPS
Type of assay: functional, biochemical.

Active and inactive are the calls of the source.

Phospholipase A2, sequence (P04054 whole entry): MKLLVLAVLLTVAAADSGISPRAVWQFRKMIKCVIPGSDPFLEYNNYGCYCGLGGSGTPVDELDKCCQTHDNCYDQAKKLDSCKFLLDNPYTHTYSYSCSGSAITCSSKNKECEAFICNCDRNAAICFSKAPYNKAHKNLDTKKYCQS

Consider `CC(C)c1ccccc1OCC(=O)NC1CCCc2ccccc21` (stereo not drawn), for which the EC50 in assay [1] is 16.3 µM (active); in assay [2] it was 18.5 µM (active); in assay [3], > 150 µM (not active). Moreover, the values for the IC50 in [4] and in assay [5] were 12.2 µM (active) and 9.38 µM (active), respectively.

Consider `O=C(NCCN(CCNC(=O)c1nc[nH]c1C(=O)Nc1ccc(Cl)cc1)CCNC(=O)c1nc[nH]c1C(=O)Nc1ccc(Cl)cc1)c1nc[nH]c1C(=O)Nc1ccc(Cl)cc1`, for which the AC50 in assay [6] is 1.67 µM (active); in assay [7], 6.39 µM (active); in assay [8] it was 7.12 µM (active).

Turning to `O=C(c1ccc(Cl)cc1)N1CCN(c2nc3ccccc3o2)CC1`, the AC50 in assay [9] was 0.176 µM (active); in assay [10], 14.9 µM (active); in assay [11], 0.465 µM (active).

On to `CC1(C)N=C(N)N=C(N)N1c1ccc(CCCCc2ccccc2)cc1`, for which the AC50 was 28.9 µM (active) in [12] and 11.2 µM (active) in [13].

The values above are taken from ChEMBL document CHEMBL1201862, “PubChem BioAssay data set” (2004).
